Measured values as given in ChEMBL document CHEMBL3808348, “Rational Design, Synthesis, and Biological Evaluation of 7-Azaindole Derivatives as Potent Focused Multi-Targeted Kinase Inhibitors” (J Med Chem, 2016).

Experiments:
[1] = molecular target: Tyrosine-protein kinase receptor UFO (Homo sapiens) (UniProt P30530); details: 100 nM
Description: Inhibition of full length His-tagged human recombinant AXL expressed in insect expression system using Fluorescein-Poly GT as substrate at 100 nM

[2] = Oral bioavailability in Swiss mouse plasma at 20 mg/kg by LC/MS/MS analysis; type: ADME, organism-based
[3] = molecular target: Aurora kinase C (Homo sapiens) (UniProt Q9UQB9); details: 100 nM
Description: Inhibition of full length His-tagged human recombinant Aurora C expressed in baculovirus using Fluorescein-CREBtide as substrate at 100 nM

[4] = molecular target: Tyrosine-protein kinase ABL2 (Homo sapiens) (UniProt P42684); details: 100 nM
Description: Inhibition of His-tagged full length human recombinant ARG expressed in baculovirus using Fluorescein-Poly GT as substrate at 100 nM

[5] = molecular target: Serine/threonine-protein kinase PLK1 (Homo sapiens) (UniProt P53350); details: 100 nM
Description: Inhibition of His-tagged full length human recombinant PLK1 expressed in baculovirus using at 100 nM

[6] = molecular target: Tyrosine-protein kinase SYK (Homo sapiens) (UniProt P43405); details: 100 nM
Description: Inhibition of GST-tagged full length human recombinant SYK expressed in baculovirus using Fluorescein-Poly GT as substrate at 100 nM

[7] = molecular target: Ribosomal protein S6 kinase beta-1 (Homo sapiens) (UniProt P23443); details: 100 nM
Description: Inhibition of GST-tagged human recombinant p70S6K (1 to 421 residues) expressed in baculovirus using Fluorescein-Crosstide as substrate at 100 nM

[8] = molecular target: Tyrosine-protein kinase ABL1 (Homo sapiens, UniProt P00519); assay: Inhibition of His-tagged full length human recombinant wild type ABL expressed in baculovirus using Fluorescein-Poly GT as substrate
[9] = Antiproliferative activity against human BxPC3 cells after 72 hrs by MTT assay; type: functional, cell-based; details: BXPC-3, 72 h
[10] = molecular target: Tyrosine-protein kinase ABL1 (Homo sapiens, UniProt P00519, E255K); assay: Inhibition of His-tagged full length human recombinant ABL E255K mutant expressed in baculovirus using Fluorescein-Poly GT as substrate
[11] = molecular target: Proto-oncogene tyrosine-protein kinase Src (Homo sapiens, UniProt P12931); assay: Inhibition of full length His-tagged human recombinant cSRC expressed in baculovirus using Fluorescein-Poly GT as substrate at 100 nM
[12] = molecular target: Vascular endothelial growth factor receptor 2 (Homo sapiens) (UniProt P35968); details: 100 nM
Description: Inhibition of His-tagged human recombinant VEGFR2 (789 to 1356 residues) expressed in baculovirus using Fluorescein-Poly GT as substrate at 100 nM

[13] = molecular target: Ephrin type-A receptor 1 (Homo sapiens) (UniProt P21709); details: 100 nM
Description: Inhibition of GST-tagged human recombinant EPHA1 (568 to 976 residues) expressed in baculovirus using Fluorescein-Poly GT as substrate at 100 nM

[14] = molecular target: Platelet-derived growth factor receptor alpha (Homo sapiens, UniProt P16234); assay: Inhibition of full length GST-tagged human recombinant PDGFRalpha expressed in baculovirus using Fluorescein-Poly GT as substrate at 100 nM
[15] = molecular target: T1, Tyrosine-protein kinase Lck (Homo sapiens, UniProt P06239); assay: Inhibition of His-tagged full length human recombinant LCK expressed in baculovirus using Fluorescein-Poly GT as substrate at 100 nM
[16] = molecular target: Tyrosine-protein kinase receptor TYRO3 (Homo sapiens) (UniProt Q06418); details: 100 nM
Chain of Tyrosine-protein kinase receptor TYRO3 (Homo sapiens) (Q06418 whole entry): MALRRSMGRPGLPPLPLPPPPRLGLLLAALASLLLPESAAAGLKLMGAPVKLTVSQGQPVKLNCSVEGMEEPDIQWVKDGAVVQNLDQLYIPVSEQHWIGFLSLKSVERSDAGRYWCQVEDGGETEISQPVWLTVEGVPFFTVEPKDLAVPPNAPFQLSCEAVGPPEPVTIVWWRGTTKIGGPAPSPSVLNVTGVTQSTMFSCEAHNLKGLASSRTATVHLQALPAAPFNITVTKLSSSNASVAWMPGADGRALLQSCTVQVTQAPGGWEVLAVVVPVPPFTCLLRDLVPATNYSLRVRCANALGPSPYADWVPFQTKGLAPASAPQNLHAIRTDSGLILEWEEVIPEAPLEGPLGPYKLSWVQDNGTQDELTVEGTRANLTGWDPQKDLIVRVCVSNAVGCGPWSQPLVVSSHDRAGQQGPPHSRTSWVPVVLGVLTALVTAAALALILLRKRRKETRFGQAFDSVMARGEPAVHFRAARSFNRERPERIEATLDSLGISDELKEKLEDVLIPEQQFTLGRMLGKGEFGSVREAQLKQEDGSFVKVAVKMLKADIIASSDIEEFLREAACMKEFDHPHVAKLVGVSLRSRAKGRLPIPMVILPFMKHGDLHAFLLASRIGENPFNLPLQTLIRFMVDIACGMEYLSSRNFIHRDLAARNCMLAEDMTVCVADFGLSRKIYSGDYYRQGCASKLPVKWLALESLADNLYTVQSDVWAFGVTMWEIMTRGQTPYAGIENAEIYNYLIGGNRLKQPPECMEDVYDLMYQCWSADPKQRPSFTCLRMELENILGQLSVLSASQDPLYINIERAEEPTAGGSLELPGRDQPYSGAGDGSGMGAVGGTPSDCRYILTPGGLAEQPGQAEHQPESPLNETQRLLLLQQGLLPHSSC
Description: Inhibition of GST-tagged human recombinant TYRO3 (451 to 890 residues) expressed in baculovirus using Fluorescein-Poly GT as substrate at 100 nM

[17] = molecular target: Ephrin type-A receptor 4 (Homo sapiens) (UniProt P54764); details: 100 nM
Description: Inhibition of GST-tagged human recombinant EPHA4 (616 to 887 residues) expressed in baculovirus using Fluorescein-Poly GT as substrate at 100 nM

[18] = molecular target: Rho-associated protein kinase 2 (Homo sapiens) (UniProt O75116); details: 100 nM
Chain of Rho-associated protein kinase 2 (Homo sapiens) (O75116 whole entry, looked up): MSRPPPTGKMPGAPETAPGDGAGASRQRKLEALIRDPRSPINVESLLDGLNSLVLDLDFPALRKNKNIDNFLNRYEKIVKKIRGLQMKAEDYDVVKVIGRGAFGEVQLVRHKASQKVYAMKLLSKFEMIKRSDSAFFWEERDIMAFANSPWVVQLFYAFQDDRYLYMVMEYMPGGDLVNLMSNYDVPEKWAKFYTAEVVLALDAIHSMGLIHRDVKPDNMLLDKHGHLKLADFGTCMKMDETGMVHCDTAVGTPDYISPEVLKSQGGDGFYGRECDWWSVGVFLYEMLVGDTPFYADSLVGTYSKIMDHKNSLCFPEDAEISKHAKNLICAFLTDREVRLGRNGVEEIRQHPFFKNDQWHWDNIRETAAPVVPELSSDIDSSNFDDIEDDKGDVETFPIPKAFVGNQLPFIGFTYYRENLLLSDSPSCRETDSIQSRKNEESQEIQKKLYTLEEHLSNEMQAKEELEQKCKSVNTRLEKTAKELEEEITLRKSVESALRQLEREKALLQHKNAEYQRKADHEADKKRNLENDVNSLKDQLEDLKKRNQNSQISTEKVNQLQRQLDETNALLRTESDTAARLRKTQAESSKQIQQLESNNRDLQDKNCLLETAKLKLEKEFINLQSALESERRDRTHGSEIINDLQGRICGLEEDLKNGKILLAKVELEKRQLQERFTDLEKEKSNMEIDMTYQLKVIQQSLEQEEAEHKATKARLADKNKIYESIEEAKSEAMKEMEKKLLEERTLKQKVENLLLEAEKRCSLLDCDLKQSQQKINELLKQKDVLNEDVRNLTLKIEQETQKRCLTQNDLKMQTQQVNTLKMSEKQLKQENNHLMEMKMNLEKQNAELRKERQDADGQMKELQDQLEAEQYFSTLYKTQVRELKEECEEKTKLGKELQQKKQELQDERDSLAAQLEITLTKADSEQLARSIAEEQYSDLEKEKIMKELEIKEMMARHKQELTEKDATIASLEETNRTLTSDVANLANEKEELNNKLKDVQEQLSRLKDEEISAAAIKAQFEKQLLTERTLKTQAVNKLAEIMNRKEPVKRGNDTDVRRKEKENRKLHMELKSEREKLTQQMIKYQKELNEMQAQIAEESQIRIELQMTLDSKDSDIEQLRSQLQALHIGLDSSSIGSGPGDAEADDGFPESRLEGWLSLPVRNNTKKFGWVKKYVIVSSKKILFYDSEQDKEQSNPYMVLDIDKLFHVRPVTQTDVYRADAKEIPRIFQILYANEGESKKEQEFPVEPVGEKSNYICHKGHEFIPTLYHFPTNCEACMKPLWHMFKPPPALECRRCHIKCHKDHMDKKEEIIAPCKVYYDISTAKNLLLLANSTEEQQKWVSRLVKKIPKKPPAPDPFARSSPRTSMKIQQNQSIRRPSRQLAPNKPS
Description: Inhibition of GST-tagged human recombinant ROCK2 ( 1 to 552 residues) expressed in baculovirus using Fluorescein-PKC as substrate at 100 nM

[19] = molecular target: CDK7/Cyclin H/MNAT1 (Homo sapiens) (UniProt P51946+P50613+P51948); details: 100 nM
Description: Inhibition of CDK7/cyclinH/MNAT1 (unknown origin) at 100 nM

[20] = molecular target: Aurora kinase A (Homo sapiens) (UniProt O14965); details: 100 nM
Description: Inhibition of full length His-tagged human recombinant Aurora A expressed in baculovirus using Fluorescein-CREBtide as substrate at 100 nM

PBMC = assay: Hematotoxicity in human PHA/IL2-stimulated PBMC; type: cell-based
[21] = molecular target: Macrophage-stimulating protein receptor (Homo sapiens) (UniProt Q04912); details: 100 nM
Description: Inhibition of GST-tagged human recombinant MST1R (983 to 1400 residues) expressed in baculovirus using Fluorescein-Poly GT as substrate at 100 nM

[22] = molecular target: Receptor tyrosine-protein kinase erbB-4 (Homo sapiens) (UniProt Q15303); details: 100 nM
Description: Inhibition of GST-tagged human recombinant ERBB4 (708 to 993 residues) expressed in baculovirus using Fluorescein-Poly GT as substrate at 100 nM

[23] = molecular target: Serine/threonine-protein kinase pim-1 (Homo sapiens) (UniProt P11309); details: 100 nM
Description: Inhibition of His-tagged full length human recombinant PIM1 expressed in baculovirus using Fluorescein-CREBtide as substrate at 100 nM

[24] = test system: Tyrosine-protein kinase ABL1 (Homo sapiens), P00519 [T315I]; details: 100 nM
Description: Inhibition of His-tagged full length human recombinant ABL1 T315I mutant expressed in baculovirus using Fluorescein-Poly GT as substrate at 100 nM

[25] = molecular target: Myotonin-protein kinase (Homo sapiens) (UniProt Q09013); details: 100 nM
Description: Inhibition of full length GST-tagged human recombinant DMPK expressed in baculovirus expression system at 100 nM

[26] = molecular target: Tyrosine-protein kinase CSK (Homo sapiens) (UniProt P41240); details: 100 nM
Description: Inhibition of His-tagged full length human recombinant CSK expressed in Escherichia coli using Fluorescein-Poly GT as substrate at 100 nM

[27] = molecular target: Tyrosine-protein kinase Lyn (Homo sapiens, UniProt P07948); assay: Inhibition of GST-tagged full length human recombinant LYNA expressed in baculovirus using Fluorescein-Poly GT as substrate at 100 nM
[28] = molecular target: Tyrosine-protein kinase ZAP-70 (Homo sapiens) (UniProt P43403); details: 100 nM
Description: Inhibition of His-tagged full length human recombinant ZAP70 expressed in baculovirus using Fluorescein-Poly GT as substrate at 100 nM

[29] = molecular target: Serine/threonine-protein kinase PAK 2 (Homo sapiens) (UniProt Q13177); details: 100 nM
Description: Inhibition of GST-tagged full length human recombinant PAK2 expressed in baculovirus at 100 nM

[30] = molecular target: Mitogen-activated protein kinase 1 (Homo sapiens) (UniProt P28482); details: 100 nM
Description: Inhibition of GST-tagged full length human recombinant ERK2 expressed in Escherichia coli using GFP-AT F2 as substrate at 100 nM

[31] = molecular target: 3-phosphoinositide-dependent protein kinase 1 (Homo sapiens) (UniProt O15530); details: 100 nM
Chain of 3-phosphoinositide-dependent protein kinase 1 (Homo sapiens) (O15530 whole entry): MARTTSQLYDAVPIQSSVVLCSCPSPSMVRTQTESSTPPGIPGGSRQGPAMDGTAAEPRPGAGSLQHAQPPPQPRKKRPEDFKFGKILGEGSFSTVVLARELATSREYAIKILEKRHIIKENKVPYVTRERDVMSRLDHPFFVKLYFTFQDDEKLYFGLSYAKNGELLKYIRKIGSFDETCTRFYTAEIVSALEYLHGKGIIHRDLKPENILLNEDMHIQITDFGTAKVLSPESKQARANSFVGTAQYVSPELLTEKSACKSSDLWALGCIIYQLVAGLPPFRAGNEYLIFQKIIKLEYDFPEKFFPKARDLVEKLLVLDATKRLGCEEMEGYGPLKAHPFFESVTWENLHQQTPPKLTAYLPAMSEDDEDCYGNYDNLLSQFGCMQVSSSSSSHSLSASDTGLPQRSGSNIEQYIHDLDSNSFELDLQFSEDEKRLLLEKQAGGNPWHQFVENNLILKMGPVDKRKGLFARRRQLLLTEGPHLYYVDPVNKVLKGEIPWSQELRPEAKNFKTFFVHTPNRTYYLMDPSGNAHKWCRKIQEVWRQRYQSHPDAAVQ
Description: Inhibition of PDK1 (unknown origin) at 100 nM

[32] = test system: Tyrosine-protein kinase ABL1 (Homo sapiens), P00519 [E255K]; assay: Inhibition of His-tagged full length human recombinant ABL E255K mutant expressed in baculovirus using Fluorescein-Poly GT as substrate at 100 nM
[33] = molecular target: Fibroblast growth factor receptor 1 (Homo sapiens) (UniProt P11362); details: 100 nM
Chain of Fibroblast growth factor receptor 1 (Homo sapiens) (P11362 22-822 limits assumed): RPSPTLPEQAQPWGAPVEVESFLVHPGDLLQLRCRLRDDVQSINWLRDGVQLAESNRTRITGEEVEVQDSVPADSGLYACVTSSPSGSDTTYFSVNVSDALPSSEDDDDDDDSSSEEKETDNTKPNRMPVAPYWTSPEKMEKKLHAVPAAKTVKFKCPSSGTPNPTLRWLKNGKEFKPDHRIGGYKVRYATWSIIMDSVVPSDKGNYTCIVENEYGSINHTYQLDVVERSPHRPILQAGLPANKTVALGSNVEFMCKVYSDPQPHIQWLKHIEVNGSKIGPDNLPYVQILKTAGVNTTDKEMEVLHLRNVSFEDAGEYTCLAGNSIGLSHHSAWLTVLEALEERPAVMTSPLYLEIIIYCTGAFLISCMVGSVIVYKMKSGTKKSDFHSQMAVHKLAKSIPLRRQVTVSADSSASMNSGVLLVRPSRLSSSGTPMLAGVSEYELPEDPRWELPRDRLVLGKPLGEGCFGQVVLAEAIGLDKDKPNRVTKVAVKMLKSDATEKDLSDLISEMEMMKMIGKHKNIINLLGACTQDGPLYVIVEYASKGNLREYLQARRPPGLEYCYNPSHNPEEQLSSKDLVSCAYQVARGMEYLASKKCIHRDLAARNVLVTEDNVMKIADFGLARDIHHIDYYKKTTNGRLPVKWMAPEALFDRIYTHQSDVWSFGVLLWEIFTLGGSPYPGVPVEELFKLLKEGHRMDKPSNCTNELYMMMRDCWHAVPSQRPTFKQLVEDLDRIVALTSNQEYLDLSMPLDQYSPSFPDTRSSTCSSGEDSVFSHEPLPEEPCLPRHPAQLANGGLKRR
Description: Inhibition of His-tagged human recombinant FGFR1 (308 to 731 residues) expressed in baculovirus using Fluorescein-Poly GT as substrate at 100 nM

[34] = molecular target: Cyclin-dependent kinase 1/cyclin B1 (Homo sapiens) (UniProt P06493+P14635); details: 100 nM
Description: Inhibition of CDK1/cyclinB (unknown origin) at 100 nM

[35] = molecular target: Tyrosine-protein kinase BTK (Homo sapiens) (UniProt Q06187); details: 100 nM
Chain of Tyrosine-protein kinase BTK (Homo sapiens) (Q06187 whole entry): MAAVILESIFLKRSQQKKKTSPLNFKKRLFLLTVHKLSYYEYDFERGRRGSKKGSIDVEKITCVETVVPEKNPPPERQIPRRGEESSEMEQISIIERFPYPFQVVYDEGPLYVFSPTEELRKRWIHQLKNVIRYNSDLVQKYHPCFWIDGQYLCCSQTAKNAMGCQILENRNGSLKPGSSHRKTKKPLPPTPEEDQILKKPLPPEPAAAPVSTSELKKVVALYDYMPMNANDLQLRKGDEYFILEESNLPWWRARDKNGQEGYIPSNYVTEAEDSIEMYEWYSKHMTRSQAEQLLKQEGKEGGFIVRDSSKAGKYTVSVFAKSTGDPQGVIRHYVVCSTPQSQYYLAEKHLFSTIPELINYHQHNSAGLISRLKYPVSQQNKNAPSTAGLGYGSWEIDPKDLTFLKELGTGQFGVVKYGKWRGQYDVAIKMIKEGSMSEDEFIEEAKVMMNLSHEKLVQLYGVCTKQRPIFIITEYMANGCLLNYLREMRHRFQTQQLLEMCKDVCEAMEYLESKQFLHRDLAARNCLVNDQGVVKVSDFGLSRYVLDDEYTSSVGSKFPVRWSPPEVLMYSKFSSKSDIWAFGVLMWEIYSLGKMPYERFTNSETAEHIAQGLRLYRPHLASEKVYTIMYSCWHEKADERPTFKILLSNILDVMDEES
Description: Inhibition of His-tagged full length human recombinant BTK expressed in baculovirus using Fluorescein-Poly GT as substrate at 100 nM

[36] = molecular target: T1, Tyrosine-protein kinase Lck; assay: Inhibition of His-tagged full length human recombinant LCK expressed in baculovirus using Fluorescein-Poly GT as substrate
[37] = molecular target: Myosin light chain kinase, smooth muscle (Homo sapiens) (UniProt Q15746); details: 100 nM
Description: Inhibition of GST-tagged human recombinant MLCK (1428 to 1771 residues) expressed in baculovirus at 100 nM

[38] = Cmax in Swiss mouse plasma at 2 mg/kg, iv by LC/MS/MS analysis; type: ADME, organism-based; parameters: dose 2 mg/kg, route intravenous
[39] = molecular target: Platelet-derived growth factor receptor beta (Homo sapiens) (UniProt P09619); details: 100 nM
Description: Inhibition of His-tagged human recombinant PDGFRbeta (558 to 1106 residues) expressed in baculovirus using Fluorescein-Poly GT as substrate at 100 nM

[40] = molecular target: Leukocyte tyrosine kinase receptor (Homo sapiens) (UniProt P29376); details: 100 nM
Description: Inhibition of GST-tagged human recombinant TYK1 (450 to 864 residues) expressed in baculovirus using Fluorescein-Poly GT as substrate at 100 nM

[41] = molecular target: Tyrosine-protein kinase JAK3 (Homo sapiens) (UniProt P52333); details: 100 nM
Description: Inhibition of GST-tagged human recombinant JAK3 (781 to 1124 residues) expressed in baculovirus using GFP-ST AT1 as substrate at 100 nM

[42] = molecular target: Calcium/calmodulin-dependent protein kinase type II subunit delta (Homo sapiens) (UniProt Q13557); details: 100 nM
Chain of Calcium/calmodulin-dependent protein kinase type II subunit delta (Homo sapiens) (Q13557 whole entry): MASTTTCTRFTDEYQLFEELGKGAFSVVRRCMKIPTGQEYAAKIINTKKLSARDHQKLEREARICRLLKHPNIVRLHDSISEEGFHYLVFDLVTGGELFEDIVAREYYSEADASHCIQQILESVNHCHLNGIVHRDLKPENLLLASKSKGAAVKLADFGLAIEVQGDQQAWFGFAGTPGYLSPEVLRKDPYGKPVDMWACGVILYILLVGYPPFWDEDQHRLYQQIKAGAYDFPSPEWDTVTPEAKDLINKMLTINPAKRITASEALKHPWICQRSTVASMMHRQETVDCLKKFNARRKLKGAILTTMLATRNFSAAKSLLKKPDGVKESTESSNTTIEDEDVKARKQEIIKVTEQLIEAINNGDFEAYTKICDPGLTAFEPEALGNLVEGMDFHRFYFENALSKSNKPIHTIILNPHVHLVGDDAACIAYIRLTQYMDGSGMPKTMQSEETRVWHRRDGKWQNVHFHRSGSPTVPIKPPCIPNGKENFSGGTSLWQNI
Description: Inhibition of full length His-tagged human recombinant CaMK2 delta expressed in baculovirus using Fluorescein-CREBtide as substrate at 100 nM

COC(=O)c1cc2cc(NCc3cc(NC(=O)c4cc(-n5cnc(C)c5)cc(C(F)(F)F)c4)ccc3C)cnc2[nH]1
49%: inhibition [11]
47%: bioavailability [2]
73 nM: IC50 [10]
1200 nM: EC50 (PBMC)
69 nM: IC50 [36]
> 80%: inhibition [15] | inhibition [27] | inhibition [32]
35 nM: EC50 [9]
853 ng/mL: Cmax [38]
< 40%: inhibition [1] | inhibition [3] | inhibition [4] | inhibition [5] | inhibition [6] | inhibition [7] | inhibition [12] | inhibition [13] | inhibition [16] | inhibition [17] | inhibition [18] | inhibition [19] | inhibition [20] | inhibition [21] | inhibition [22] | inhibition [23] | inhibition [24] | inhibition [25] | inhibition [26] | inhibition [28] | inhibition [29] | inhibition [30] | inhibition [31] | inhibition [33] | inhibition [34] | inhibition [35] | inhibition [37] | inhibition [39] | inhibition [40] | inhibition [41] | inhibition [42]
68%: inhibition [14]
6 nM: IC50 [8]
